Measured values from US20220026421A1, “METHOD, SURFACE, PARTICLE AND KIT FOR THE DETECTION OF ANALYTES IN SAMPLES” (TECHNISCHE UNIVERSITÄT DRESDEN, priority 2018, published 2022).

Target: EcEPSPS (UniProt P0A6D3+Q04571)
Conditions: FIG. 2; surfaces incubated with 10 mM solution, then glyphosate-coated particles; Ccg2 / Ccg2_GS_EcEPSPS coated glass
Procedure: The immobilised enzymes on the surface interact attractively with the particle-bound competitor, resulting in a characteristic contact area between the surface and the particle. The dissolved analyte competes with the competitor for the binding sites on the surface. […] The determination of the contact and particle radius to ascertain the adhesion energy takes place by means of reflection interference contrast microscopy.
The surfaces were then incubated with either 10 mM glyphosate or glufosinate solutions and then with linker-functionalised particles with or without glyphosate coating.
The surfaces were then incubated with glyphosate solutions of different concentrations and then with glyphosate-coated particles with ethylenediamine or pentaglycine linkers. […]
The recording of the radial intensity profiles of the HGS on the functionalised surface took place in the reflection interference contrast method by means of an inverted microscope system (Olympus IX 73) with a 60× immersion objective (Olympus UPIanSAPO 60× Oil Microscope Objective). From the recorded profiles, the contact radii a of particles and surface as well as the particle radii RHES could be automatically ascertained subsequently by means of software specially developed for this purpose. According to the Johnson-Kendall-Roberts model [2], these quantities are related to the adhesion energy Wadh in the following context: […]

In the case of O=C(O)CNCP(=O)(O)O [glyphosate, N-(phosphonomethyl)glycine], the “influence of soluble compound on the adhesion energy between glyphosate-coated particle and surface” value is reported as “in the range of the negative control”.
